Measurements: ChEMBL document CHEMBL1149985, “Novel synthesis of nucleoside 5-polyphosphates” (Bioorg Med Chem Lett, 1996)

System: Dictyostelium discoideum
Assay: Compound was evaluated for nucleoside diphosphate kinase (NDP-kinase) activity relative to Adenosine triphosphate (100)
Set-up: concentration or dose not given beside the values

| Structure (SMILES) | Relative activity [%] |
| --- | --- |
| Nc1ncnc2c1nc(Cl)n2[C@@H]1O[C@H](COP(=O)(O)OP(=O)(O)OP(=O)(O)O)[C@@H](O)[C@H]1O | 140 |
| Nc1ncnc2c1ccn2[C@@H]1O[C@H](COP(=O)(O)OP(=O)(O)OP(=O)(O)O)[C@@H](O)[C@H]1O | 155 |
| O=P(O)(O)OP(=O)(O)OP(=O)(O)OC[C@H]1O[C@@H](n2cnc3cncnc32)[C@H](O)[C@@H]1O | 130 |
| O=P(O)(O)OP(=O)(O)OP(=O)(O)OC[C@H]1O[C@@H](n2cnc3cc(Cl)c(Cl)cc32)[C@H](O)[C@@H]1O | 145 |
| O=P(O)(O)OP(=O)(O)OP(=O)(O)OC[C@H]1O[C@@H](n2cnc3c(Cl)ncnc32)[C@H](O)[C@@H]1O | 110 |

System: Dictyostelium discoideum
Assay: Compound was evaluated for nucleoside diphosphate kinase (NDP-kinase) activity

| Structure (SMILES) | Relative activity [%] |
| --- | --- |
| Nc1ncnc2c1ncn2[C@@H]1O[C@H](COP(=O)(O)OP(=O)(O)OP(=O)(O)O)[C@@H](O)[C@H]1O | 100 |
